Where no end group is shown, it is not given here.
How the values were obtained:
[1] = Transmission electron microscopy of fibril formation with PI(4,5)P2; conditions: in vitro, data not shown
[2] = test system: plasma membrane PI(4,5)P2 of U937 cells; assay: Anti-PI(4,5)P2 antibody blocking assay; assay type: cell-based, human; conditions: 15 μM defensins 30 min or 10 mM neomycin 3 h; cells fixed, saponin-lysed, FITC-conjugated anti-PI(4,5)P2 IgM, flow cytometry
Procedure: U937 cells at 1×10^6 cells/mL were treated with 10 mM neomycin for 3 h and/or 15 μM defensins for 30 min in serum-free RPMI 1640 medium containing 0.1% BSA, followed by 20 min fixation with 2% (v/w) paraformaldehyde (Sigma-Aldrich), 10 min lysis with 0.5% (w/v) saponin (Sigma-Aldrich), and then 30 min blocking with 3% (w/v) BSA. Three 5-min centrifugal washes with PBS at 500 g were also included between steps. FITC-conjugated mouse anti-PI(4,5)P2 IgM (Echelon Biosciences) or IgM control (GeneTex, Irvine, CA) was subsequently used at 10 μg/mL for 30 min prior to flow cytometry analysis.

[3] = ATP-encapsulated liposome leakage assay, PC only; conditions: bioluminescence, normalised to HEPES and Triton X-100
Procedure: (§1) Liposomes were generated as described previously using natural PI(4,5)P2 (porcine brain, in chloroform:methanol:water at 20:9:1 molar ratio) and PC (chicken egg, in chloroform) purchased from Avanti Polar Lipids. PC only or PC:PI(4,5)P2 (95:5 molar ratio) solutions were dried under a stream of nitrogen gas followed by overnight vacuum-drying. The lipid films were rehydrated to a final concentration of 5 mg/mL in 20 mM HEPES (pH 7.2) containing 5 mg/mL adenosine-5-triphosphate disodium salt (ATP; Sigma-Aldrich) at 37°C for 1 h. After three subsequent cycles of freezing (liquid nitrogen) and thawing (25°C), multilamellar liposomes were extruded 15–20 times through a mini-extruder (Avanti Polar Lipids). Free ATP was removed by three centrifugal washes with 20 mM HEPES at 16,500 g prior to the ATP release assay. Liposomes treated with 1% Triton X-100 were included as positive control and assigned as total lysis, whereas HEPES only control served as background reading. The level of ATP release at a particular time point was determined by quotient of the corrected reading (after subtracting background) of the sample at that time point and corrected reading of total lysis, as per the following equation: % Lysist=Samplet−HEPESt/Triton X−HEPES×100

[4] = Protein-lipid overlay assay, PIP strip; assay type: binding; conditions: 1 μg/mL protein, immunodetection, densitometry
Procedure: (§2) Protein-lipid overlay assays using Membrane strip™ or PIP strip™ (Echelon Biosciences, Salt Lake City, UT) were performed using 1 μg/mL proteins as described previously. Lipid binding was immunodetected using a combination of rabbit anti-HBD-3 IgG (50 μg/mL) and horseradish peroxidase-conjugated donkey-anti-rabbit Ig (10 μg/mL) antibodies. Chemiluminescence signal intensity was quantitated by densitometry analysis using ImageJ (National Institutes of Health, Bethesda, MD; http://imagej.nih.gov/ij/).

tumour lines = assay: Flow cytometry-based PI uptake assay, tumour lines; assay type: cell-based, human; conditions: 50 μM HBD-3 (highest dose tested), 37°C, 30 min
Procedure: (§3) Cells suspended at 1×10^6 cells/mL in serum-free medium containing 0.1% (w/v) bovine serum albumin (BSA) (Sigma-Aldrich) were treated with HBD-3 at 37°C for 30 min. Nucleic acid stain propidium iodide (PI) was then added to a final concentration of 1 μg/mL and cells subjected to flow cytometry analysis using BD FACSCanto II Flow Cytometer and BD FACSDiva Software v6.1.1 (BD Biosciences, San Jose, CA). For each flow cytometry reading, 10,000 cells, gated appropriately based on forward scattering and side scattering, were recorded. The resultant data were processed using FlowJo software (Tree Star, San Carlos, CA) to determine PI-positivity, which reflects the level of membrane permeabilisation. For lipid inhibition assays, 15 μM HBD-3 was pre-incubated with 50 μM synthetic lipids, including L-α-phosphatidic acid (PA), L-α-phosphatidylcholine (PC), L-α-phosphatidylethanolamine (PE), L-α-phosphatidylserine (PS), L-α-phosphatidylinositol-4-phosphate (PI(4)P), L-α-phosphatidylinositol-3,5-bisphosphate (PI(3,5)P2), L-α-phosphatidylinositol-4,5-bisphosphate (PI(4,5)P2) and L-α-phosphatidylinositol-3,4,5-trisphosphate (PI(3,4,5)P)3. All lipids were sourced from Avanti Polar Lipids, Alabaster, AL. […]

[5] = Protein-lipid overlay assay, Membrane strip; assay type: binding; conditions: 1 μg/mL protein, immunodetection, densitometry
Procedure: as §2

[6] = test system: tumour lines HeLa, HL-60, Jukat, U937 and PC3; assay: Tetrazolium-based cell viability assay, tumour lines; design: species or system human; conditions: range over HeLa, HL-60, Jurkat, 48 h, MTT (adherent) or MTS/PMS (suspension), estimated, three independent experiments
Procedure: Human epithelial cervical cancer (HeLa), leukemic monocyte lymphoma (U937), prostate cancer (PC3), promyelocytic leukemia (HL-60), leukemic T cell lymphoblast (Jurkat) cells were cultured in RPMI-1640 medium supplemented with 5–10% (v/v) fetal calf serum (FCS), 100 U/mL penicillin and 100 μg/mL streptomycin (Invitrogen, Carlsbad, CA). Human umbilical vein […] cell (HUVEC) cells were cultured in M199 medium (Invitrogen) supplemented with 20% (v/v) FCS, 40 μg/mL gentamicin, 4 μg/mL endothelial cell growth factor, 4 μg/mL L-glutamine and 135 μg/mL heparin, in 0.1% (w/v) gelatin-coated Corning CELLBIND flask (Corning Life Sciences, Acton, MA). […]
Different concentrations of HBD-3 were added to cells seeded in 96-well plates in appropriate complete medium. […] After 48 h, cell viability was determined using 3-(4,5-dimethylthiazol-2-yl)-2,5-diphenyltetrazolium bromide (MTT) (Sigma-Aldrich, MO) for adherent cells (HeLa, PC3, HUVEC, AHDF, CASMC) or 3-(4,5-dimethylthiazol-2-yl)-5-(3-carboxymethoxyphenyl)-2-(4-sulfophenyl)-2H-tetrazolium (MTS) (Promega, Madison, WI) coupled with phenzine methosulfate (PMS) (Promega) for suspension cells (U937, HL-60, Jurkat) prior to absorbance measurement at 570 nm and […], respectively. Absorbance readings of untreated control wells was designated as 100% cell viability.

[7] = ATP-encapsulated liposome leakage assay, PC:PI(4,5)P2; conditions: PC liposomes containing 5% PI(4,5)P2, concentration-dependent, compared with PC only
Procedure: as §1

U937 cells = assay: Flow cytometry-based PI uptake assay, U937; assay type: cell-based, human; conditions: 25 μM HBD-3, 37°C, 30 min, serum-free medium with 0.1% BSA
Procedure: as §3

## human β-defensin 3 (GIINTLQKYYCRVRGGRCAVLSCLPKEEQIGKCSTRGRKCCRRKK; not fully specified; cysteine pairing not given here; UniProt P81534 23-67, looked up) [HBD-3, human β-defensin 3, cationic antimicrobial peptide, recombinantly expressed in P. pastoris]
[1]
  oligomerisation to fibrils on binding PI(4,5)P2: not observed
[2]
  blocking of anti-PI(4,5)P2 antibody binding (overall fluorescence intensity vs untreated control): significant decrease of overall fluorescence intensity
[3]
  ATP release from ATP-encapsulated liposomes: minimally induced ATP release
[4]
  binding to phosphoinositides/lipids on PIP strip: most strongly, PA and all phosphoinositides
Tumour lines
  cells permeabilised (PI-positive): at least 80%
[5]
  relative binding intensity to lipids on Membrane strip: greater relative binding intensity toward phospholipids
[6]
  IC50: 8 to 20 µM
[7]
  ATP release from ATP-encapsulated liposomes: much higher level of ATP was released
U937 cells
  PI-positive cells: approximately 85%

— article PMC4811302, “Human β-defensin 3 contains an oncolytic motif that binds PI(4,5)P2 to mediate tumour cell permeabilisation” (Oncotarget, 2015)
